According to patent US5240912A, “Transforming growth factor (TGF) peptides” (priority 1991, dated 1993):
Like-named read-outs stand apart in the source and are kept apart here. Positions of bridges follow the written chain, without caps; N, C: chain ends. Residues, ends and D or L forms follow the SMILES beside them. No end group written: not given here.

How the values were obtained:
[1] = tested on: BSC-1 cells infected with vaccinia virus; type: cell-based, Cercopithecus monkey; settings: AraC from after the 1 hr adsorption period; 13 and 24 hr post infection
anti-KLH-peptide 1 IgG = assay: Solid phase RIA, anti-KLH-peptide 1 IgG on BSA-peptide 1 conjugate; type: binding, rabbit
Experimental: (1979) J. Immunol. Methods 28, pp. 201-206). Carrier-peptide complexes were purified by gel filtration. […] Rabbits were boosted s.c. every two weeks with the immunogen in incomplete Freund's adjuvant. The IgG fraction of the antiserum after 5 boosts was used for immunoassays and radiolabeled using Na^125 I (NEN) and Enzymobeads (Bio-Rad) to 4×10^5 cpm/μg protein. […] Plates were incubated for 4 hours at 37° C. with [^125 I]anti-KLH-peptide 1 IgG (50,000 cpm/well) in the presence or absence of inhibitors, washed and individual wells were counted.

quiescent HFF = assay: Cell proliferation assay, [3H]methyl-thymidine incorporation; type: cell-based, human
Experimental: HFF cells were grown to confluence in 48-well cluster dishes in DMEM-10% FCS and brought to quiescence by starvation for 2 days in DMEM-0.5% FCS. Mitogens and peptides were incubated with cells at 37° C. for 18 hours prior to a 4 hour pulse with 1 μCi [^3 H]methyl-thymidine (NEN) and trichloroacetic acid precipitable radioactivity was determined.

[2] = molecular target: T1, EGF receptors on A-431 human epidermoid carcinoma cells (Homo sapiens, UniProt P00533); assay: [125I]EGF radioreceptor assay on A-431 cells; type: binding
T1 construct: Human epidermoid carcinoma A431 cells have in excess of 10^6 EGF receptors per cell; endogenous in cells; host or cells: A431 human epidermoid carcinoma cells
Experimental: A-431 human epidermoid carcinoma cells or human foreskin fibroblasts (HFF), established from primary cultures, were grown to confluence in 24-well cluster dishes (Costar) in Dulbecco's minimal essential medium (DMEM, Gibco) containing 10% fetal calf serum (FCS, Hyclone). EGF was radio-iodinated as above to between 4×10^4 and 8×10^4 cpm/ng protein. Cells were incubated at 4° C. for 60 minutes with 1 nM [^125 I]EGF in the presence of inhibitor peptides in DMEM (pH 7.4; 20 mM Hepes) containing 0.1% BSA. Cells were washed 3× with cold buffer, lysed with 0.1N NaOH, and cell-associated radioactivity was measured (γ-counter). Nonspecific binding assessed in the presence of a 100x excess of cold EGF was less than 5% and 10% of the specific binding for A-431 and HFF cells, respectively.

[3] = tested on: antiserum directed against peptide III; assay: Competitive radioimmunoassay with 125I-peptide III; type: binding, rabbit; settings: for Relative Inhibitory Activity: half-maximal inhibitory concentration relative to peptide III, standard RIA; for effectiveness as inhibitor of precipitation of 125I-peptide III: relative to peptide III
Experimental: Reactants were mixed in a final volume of 50 microliters of a solution containing: 20 mM sodium phosphate, at pH 7.4; 200 mM NaCl; 40 mM dithiothreitol; 0.1% (w:v) BSA; 0.1% (w:v) NaN3; ^125 I-peptide III; (10^4 cpm); antiserum at a final dilution of 1/15,000; and other additions, as specified. The reaction was initiated by the addition of antiserum and continued at 23° C. for 90 minutes. An equal volume of 10% formalin-fixed Staphalococcus A (Pansorbin, Calbiochem) was then added and incubation was continued for an additional 30 minutes at 23° C. The immunoadsorbant was removed by sedimentation through a cushion of 10% (w:v) sucrose and the amount of bound ^125 I-peptide III was determined using a gamma counter.

[4] = molecular target: T2, EGF receptors on A431 cells (Homo sapiens, UniProt P00533); assay: Binding of 125I-labeled rat TGF to A431 cells
T2 construct: Human epidermoid carcinoma A431 cells have in excess of 10^6 EGF receptors per cell; endogenous in cells; host or cells: A431 human epidermoid carcinoma cells
Experimental: was synthesized using the solid-phase technique of Ohgak et al. (1983) Journal of Immunol. Meth. 57, pp. 171-184. This oligopeptide was then coupled to keyhole limpet hemocyanin in accordance with the procedure of Baron et al. (1982) Cell 28, pp. 395-404, and used to immunize rabbits (Baron et al. (1982) Cell 28, pp. 395-404) and sheep (Lerner (1982) Nature 299, pp. 592-596). Antisera were assayed against peptide by a peroxidase-linked immunoassay (Kirkegaard and Perry Laboratories, Gaithersberg, Md.) and against homogeneous rat TGF (purified according to Example II above), by immunoprecipitation (Bister et al. (1980) J. Virol. 36, pp. 617-621) and Western blotting techniques (Burnett (1981) Analyt. Biochem. 112, pp. 195-203). Binding of ^125 I-labeled rat TGF and mouse EGF (Bethesda Research Labs, Bethesda, Md.) to A431 cells grown in 96-well microtiter plates was as described in Pross et al. (1977) Proc. Natl. Acad. Sci. USA 74, pp. 3918-3921.
Human epidermoid carcinoma A431 cells have in excess of 10^6 EGF receptors per cell (Fabricant et al. (1977) Proc. Natl. Acad. Sci. USA 74, pp. 565-569). TGF competes with EGF for binding to these receptors. Binding of ^125 I-labeled rat TGF to these cells was blocked by an excess of unlabeled EGF and by antiserum to peptide. […]

Nc1ccn([C@@H]2O[C@H](CO)[C@@H](O)[C@@H]2O)c(=O)n1 [AraC, cytosine arabinoside]
VGF production relative to infected control cultures [1]: enhanced more than two-fold

CC(C)[C@@H]1NC(=O)CNC(=O)[C@H](C(C)C)NC(=O)[C@H](Cc2ccc(O)cc2)NC(=O)CNC(=O)[C@H](CO)NC(=O)[C@H](Cc2c[nH]cn2)NC(=O)[C@@H](N)CSSC[C@@H](C(=O)O)NC(=O)[C@H](CCCNC(=N)N)NC1=O [Peptide 1] (H-CHSGYVGVRC-OH; disulfide 1-10)
inhibition of reaction of anti-KLH-peptide 1 antibodies with BSA-TGF peptide (anti-KLH-peptide 1 IgG): inhibited in a concentration-dependent fashion
IC50 (quiescent HFF; induced by 1 nM of EGF, read-out: Inhibition of Mitogenesis IC50 (M) EGF): > 1e-05 M
IC50 (quiescent HFF; induced by 1 nM of TGFα, read-out: Inhibition of Mitogenesis IC50 (M) TGFα): > 1e-05 M
concentration giving partial inhibition of [125I]EGF binding [2]: > 10^-6 M

CC(=O)N[C@H]1CSSC[C@@H](C(N)=O)NC(=O)[C@H](CCCNC(=N)N)NC(=O)[C@H](C(C)C)NC(=O)CNC(=O)[C@H](C(C)C)NC(=O)[C@H](Cc2ccc(O)cc2)NC(=O)CNC(=O)[C@H](CO)NC(=O)[C@H](Cc2c[nH]cn2)NC1=O [Peptide 2] (Ac-CHSGYVGVRC-NH2; disulfide 1-10)
binding potency relative to EGF or TGF-α [2]: approximately 0.02%

Ac-Cys-His-Ser-Gly-Tyr-Val-Gly-Ala-Arg-Cys-OMe (Ac-CHSGYVGARC-OMe; disulfide 1-10 (inferred)) [Peptide 3, methyl ester of the corresponding loop of hTGF]
binding potency relative to EGF or TGF-α [2]: ~0.2%

CHSGYVGVRC (cysteine pairing not given here) [Peptide II]
Relative Inhibitory Activity [3]: > 1500

CHSGYVGVRCEHADLLA (cysteine pairing not given here) [Peptide III]
Relative Inhibitory Activity [3]: 1
IC50 ([3]; read-out: concentration producing half-maximal inhibition of precipitation of 125I-peptide III): 0.0007 µM

EGF: mouse submaxillary gland epidermal growth factor [reference compound]
blocking of 125I-labeled rat TGF binding to A431 cells [4]: blocked
inhibition of reaction of anti-KLH-peptide 1 antibodies with BSA-TGF peptide (anti-KLH-peptide 1 IgG): did not cause significant inhibition
highest concentration without competition in RIA [3]: greater than 1 μM
Relative Inhibitory Activity [3]: > 1500

VGVRCEHADLLA [Peptide IV]
Relative Inhibitory Activity [3]: 3.5
effectiveness as inhibitor of precipitation of 125I-peptide III [3]: only slightly less effective

VVSHFNKCPDSHT [Peptide I]
Relative Inhibitory Activity [3]: > 1500
effectiveness as inhibitor of precipitation of 125I-peptide III [3]: ineffective
